Assay results reported in patent publication US20030087906A1, “NITROGEN SUBSTITUTED BIARYL PURINE DERIVATIVES AS POTENT ANTIPROLIFERATIVE AGENTS” (priority 2001, published 2003).

Key:
Assay in all cases: NCI 60-cell line growth inhibition assay
Type in all cases: cell-based
[1] = tested on: HS 578T; conditions: Homo sapiens
[2] = tested on: MDA-MB-435; conditions: Homo sapiens; Breast, MDA-MB-435
[3] = tested on: NCI/ADR-RES; conditions: Homo sapiens
[4] = tested on: T-47D; conditions: Homo sapiens, T47D
[5] = tested on: SF-268; conditions: Homo sapiens
[6] = tested on: SF-295; conditions: Homo sapiens
[7] = tested on: SF-539; conditions: Homo sapiens
[8] = tested on: SNB-19; conditions: Homo sapiens
[9] = tested on: SNB-75; conditions: Homo sapiens
[10] = tested on: U251; conditions: Homo sapiens, U-251
[11] = tested on: HCC-2998; conditions: Homo sapiens; Colon, HCC-2998
[12] = tested on: HCT-116; conditions: Homo sapiens
[13] = tested on: HT29; conditions: Homo sapiens, HT-29
[14] = tested on: KM12; conditions: Homo sapiens
[15] = tested on: SW-620; conditions: Homo sapiens
[16] = tested on: CCRF-CEM; conditions: Homo sapiens
[17] = tested on: K-562; conditions: Homo sapiens, K562
[18] = tested on: MOLT-4; conditions: Homo sapiens
[19] = tested on: RPMI-8226; conditions: Homo sapiens
[20] = tested on: SR; conditions: Homo sapiens
[21] = tested on: M14; conditions: Homo sapiens
[22] = tested on: SK-MEL-28; conditions: Homo sapiens
[23] = tested on: SK-MEL-5; conditions: Homo sapiens
[24] = tested on: UACC-257; conditions: Homo sapiens
[25] = tested on: UACC-62; conditions: Homo sapiens
[26] = tested on: HOP-92; conditions: Homo sapiens
[27] = tested on: NCI-H23; conditions: Homo sapiens
[28] = tested on: NCI-H322M; conditions: Homo sapiens
[29] = tested on: OVCAR-4; conditions: Homo sapiens
[30] = tested on: OVCAR-5; conditions: Homo sapiens
[31] = tested on: PC-3; conditions: Homo sapiens
[32] = tested on: 786-0; conditions: Homo sapiens
[33] = tested on: ACHN; conditions: Homo sapiens
[34] = tested on: CAKI-1; conditions: Homo sapiens; Renal, CAKI-1
[35] = tested on: RXF 393; conditions: Homo sapiens
[36] = tested on: SN12C; conditions: Homo sapiens
[37] = tested on: UO-31; conditions: Homo sapiens
[38] = tested on: MDA-MB-231/ATCC; conditions: Homo sapiens; MDA-MB-231/ATCC (Breast)
[39] = tested on: SK-MEL-2; conditions: Homo sapiens; SK-MEL-2 (Melanoma)
[40] = tested on: NCI-H522; conditions: Homo sapiens; NCI-H522 (Non-Small Cell Lung)

CC[C@H](CO)Nc1nc(NCc2ccc(-c3ccccn3)cc2)c2ncn(C(C)C)c2n1 [Compound 17]
GI50 ([1]; Breast, HS 578T): 6.31 µM | GI50 [2]: 0.2 µM | GI50 ([3]; Breast, NCI/ADR-RES): 0.28 µM | GI50 ([4]; Breast, T-47D): 0.13 µM | GI50 ([5]; CNS, SF-268): 0.04 µM | GI50 ([6]; CNS, SF-295): 0.19 µM | GI50 ([7]; CNS, SF-539): 0.4 µM | GI50 ([8]; CNS, SNB-19): 0.14 µM | GI50 ([9]; CNS, SNB-75): 0.02 µM | GI50 ([10]; CNS, U251): 0.4 µM | GI50 [11]: 0.03 µM | GI50 ([12]; Colon, HCT-116): 0.16 µM | GI50 ([13]; Colon, HT29): 0.1 µM | GI50 ([14]; Colon, KM12): 0.03 µM | GI50 ([15]; Colon, SW-620): 0.01 µM | GI50 ([16]; Leukemia, CCRF-CEM): 0.16 µM | GI50 ([17]; Leukemia, K-562): 0.16 µM | GI50 ([18]; Leukemia, MOLT-4): 0.25 µM | GI50 ([19]; Leukemia, RPMI-8226): 0.03 µM | GI50 ([20]; Leukemia, SR): 0.5 µM | GI50 ([21]; Melanoma, M14): 0.03 µM | GI50 ([22]; Melanoma, SK-MEL-28): 0.12 µM | GI50 ([23]; Melanoma, SK-MEL-5): 0.32 µM | GI50 ([24]; Melanoma, UACC-257): 0.2 µM | GI50 ([25]; Melanoma, UACC-62): 0.27 µM | GI50 ([26]; Non-Small Cell Lung, HOP-92): 1.58 µM | GI50 ([27]; Non-Small Cell Lung, NCI-H23): 0.16 µM | GI50 ([28]; Non-Small Cell Lung, NCI-H322M): > 1000 µM | GI50 ([29]; Ovarian, OVCAR-4): 0.32 µM | GI50 ([30]; Ovarian, OVCAR-5): 0.26 µM | GI50 ([31]; Prostate, PC-3): 0.2 µM | GI50 ([32]; Renal, 786-0): 0.25 µM | GI50 ([33]; Renal, ACHN): 0.4 µM | GI50 [34]: 0.13 µM | GI50 ([35]; Renal, RXF 393): 0.02 µM | GI50 ([36]; Renal, SN12C): 0.56 µM | GI50 ([37]; Renal, UO-31): 0.1 µM

CC[C@H](CO)Nc1nc(NCc2ccc(-c3cccc([N+](=O)[O-])c3)cc2)c2ncn(C(C)C)c2n1 [Compound 48]
GI50 ([1]; HS 578T (Breast)): 0.03 µM | GI50 [38]: 0.09 µM | GI50 ([3]; NCI/ADR-RES (Breast)): 0.12 µM | GI50 ([4]; T-47D (Breast)): 0.15 µM | GI50 ([5]; SF-268 (CNS)): < 0.01 µM | GI50 ([6]; SF-295 (CNS)): 0.24 µM | GI50 ([7]; SF-539 (CNS)): 0.38 µM | GI50 ([8]; SNB-19 (CNS)): 0.02 µM | GI50 ([9]; SNB-75 (CNS)): < 0.01 µM | GI50 ([10]; U251 (CNS)): 0.17 µM | GI50 ([12]; HCT-116 (Colon)): 0.19 µM | GI50 ([13]; HT29 (Colon)): < 0.01 µM | GI50 ([14]; KM12 (Colon)): 0.02 µM | GI50 ([15]; SW-620 (Colon)): < 0.01 µM | GI50 ([16]; CCRF-CEM (Leukemia)): 0.03 µM | GI50 ([17]; K-562 (Leukemia)): 0.16 µM | GI50 ([18]; MOLT-4 (Leukemia)): 0.05 µM | GI50 ([19]; RPMI-8226 (Leukemia)): < 0.01 µM | GI50 ([20]; SR (Leukemia)): 0.16 µM | GI50 ([21]; M14 (Melanoma)): < 0.01 µM | GI50 [39]: 0.48 µM | GI50 ([22]; SK-MEL-28 (Melanoma)): < 0.01 µM | GI50 ([23]; SK-MEL-5 (Melanoma)): 0.17 µM | GI50 ([24]; UACC-257 (Melanoma)): 0.04 µM | GI50 ([25]; UACC-62 (Melanoma)): 0.1 µM | GI50 ([26]; HOP-92 (Non-Small Cell Lung)): 0.46 µM | GI50 ([27]; NCI-H23 (Non-Small Cell Lung)): 0.07 µM | GI50 ([28]; NCI-H322M (Non-Small Cell Lung)): 0.03 µM | GI50 [40]: < 0.01 µM | GI50 ([29]; OVCAR-4 (Ovarian)): 0.2 µM | GI50 ([30]; OVCAR-5 (Ovarian)): 0.16 µM | GI50 ([31]; PC-3 (Prostate)): 0.23 µM | GI50 ([32]; 786-0 (Renal)): 0.25 µM | GI50 ([33]; ACHN (Renal)): 0.25 µM | GI50 ([35]; RXF 393 (Renal)): < 0.01 µM | GI50 ([36]; SN12C (Renal)): 0.03 µM | GI50 ([37]; UO-31 (Renal)): < 0.01 µM
